Results on five compounds are retold here after publication PMC6758725, “Novel 4-arylaminoquinazolines bearing N,N-diethyl(aminoethyl)amino moiety with antitumour activity as EGFR^wt-TK inhibitor” (Journal of Enzyme Inhibition and Medicinal Chemistry, 2019).

Structures are written as SMILES. Like-named read-outs stand apart in the source and are kept apart here.

For data set [1], the system named is A431 cells. Nature of the data set: MTT antiproliferative assay, A431 cells. Type of data set: cell-based. The settings on record: Homo sapiens, read-out: IC50 (µM) A431. How it is done:
(§1) Methyl thiazolyl tetrazolium (MTT) colorimetric assay (MTT assay)[17]^,[20] was used to evaluated the antiproliferative activities of these novel compounds against four human tumour cell lines including SW480, A549, A431 and NCI-H1975.
(§2) Figure 2. […] (A) SW480 cells, (B) A549 cells, (C) A431 cells, (D) NCI-H1975 cells. […] All error bars were represented in mean ± SE.
(§3) The effect of compounds on cell proliferation was determined using the MTT (3–(4,5-dimethylthiazol-2-yl)-2,5-diphenyltetrazolium bromide) method, which was carried out as previously described[12]^,[16].

Data set [2] has as its system A549 cells. The data set is described as follows: Cell apoptosis analysis (Annexin V-FITC/PI, FACS). The settings on record: for numbers of late apoptotic cells compared with control groups / numbers of necrosis cells compared with control groups: 48 h. Type of data set: cell-based, human. How it is done: The process of controlled cellular death known as apoptosis has an important central role not only in normal homeostatic maintenance of tissues, but also in numerous diseases such as cancer, neurodegenerative, autoimmune, and cardiovascular diseases. After treatment by compound 6a for 48 h, the apoptosis of A549 cells were measured by fluorescence-activated cell sorter (FACS) analysis with annexin V-fluorescein isothiocyanate (FITC) and propidium iodide (PI) labelling.
Figure 4. Effect of compound 6a on cell apoptosis in A549 cells. (A) Representative density plots were obtained by FACS, (B) histograms of percentages of apoptotic cells in each group from (A) analysed by GraphPad Prism5.
Following treatment with different concentrations of compound 6a, the apoptosis of A549 cells was measured using Annexin V-FITC/PI apoptosis detection kit (KeyGEN BioTECH, Nanjing, China), according to the manufacturer’s instructions. Apoptosis of the treated cells was then detected by flow cytometry using ACEA NovoCyte.

For data set [3], the system named is NCI-H1975 cells. The data set is described as follows: MTT antiproliferative assay, NCI-H1975 cells. Type of data set: cell-based. The settings on record: Homo sapiens, read-out: IC50 (µM) NCI-H1975. How it is done:
as §1, §2, §3

For data set [4], the system named is SW480 cells. Nature of the data set: MTT antiproliferative assay, SW480 cells. Type of data set: cell-based. The settings on record: Homo sapiens, read-out: IC50 (µM) SW480. How it is done: as §1, §2, §3
The test system of data set [5] is A549 cells. Nature of the data set: MTT antiproliferative assay, A549 cells. It counts as cell-based. The settings on record: Homo sapiens, read-out: IC50 (µM) A549. How it is done: as §1, §2, §3
The target in data set [6] is wild type epidermal growth factor receptor tyrosine kinase (EGFR^wt-TK) (Homo sapiens, UniProt P00533). The data set is described as follows: In vitro EGFR^wt tyrosine kinase ELISA assay.
For data set [7], the system named is A549 cells. Nature of the data set: Cell cycle analysis (PI, flow cytometry). The settings on record: 48 h; for percentage of cells in G0/G1 phase: untreated 51.97%. It counts as cell-based, human. An excerpt: Figure 5. Effect of compound 6a on the cell cycle phase distribution in A549 cells. (A) Representative profiles were obtained by FACS, (B) histograms of percentages of percentages of cell populations in the G0/G1, S and G2/M phase in each group from (A) analysed by GraphPad Prism5. […] Percentage of cells in G0/G1, S and G2/M phases were indicated. All values were expressed as mean ± SE. *p < .05, **p < .01 and ***p < .001 indicate significant differences compared with the control at the same phase.
Following treatment with different concentrations of compound 6a, the distribution of cell cycle was measured using cell cycle detection kit (KeyGEN BioTECH, Nanjing, China), according to the manufacturer’s instructions. The cell cycle of the treated cells was then detected by flow cytometry using ACEA NovoCyte.

The mark [8] stands for this setting: A-431, MTT, 72 h of treatment, mean ± SD of at least three independent experiments.
[9] abbreviates: NCI-H1975, MTT, 72 h of treatment, mean ± SD of at least three independent experiments.
[10] abbreviates: SW480, MTT, 72 h of treatment, mean ± SD of at least three independent experiments.
[11] abbreviates: A549, MTT, 72 h of treatment, mean ± SD of at least three independent experiments.

Sequence of wild type epidermal growth factor receptor tyrosine kinase (EGFR^wt-TK) (P00533 25-1210): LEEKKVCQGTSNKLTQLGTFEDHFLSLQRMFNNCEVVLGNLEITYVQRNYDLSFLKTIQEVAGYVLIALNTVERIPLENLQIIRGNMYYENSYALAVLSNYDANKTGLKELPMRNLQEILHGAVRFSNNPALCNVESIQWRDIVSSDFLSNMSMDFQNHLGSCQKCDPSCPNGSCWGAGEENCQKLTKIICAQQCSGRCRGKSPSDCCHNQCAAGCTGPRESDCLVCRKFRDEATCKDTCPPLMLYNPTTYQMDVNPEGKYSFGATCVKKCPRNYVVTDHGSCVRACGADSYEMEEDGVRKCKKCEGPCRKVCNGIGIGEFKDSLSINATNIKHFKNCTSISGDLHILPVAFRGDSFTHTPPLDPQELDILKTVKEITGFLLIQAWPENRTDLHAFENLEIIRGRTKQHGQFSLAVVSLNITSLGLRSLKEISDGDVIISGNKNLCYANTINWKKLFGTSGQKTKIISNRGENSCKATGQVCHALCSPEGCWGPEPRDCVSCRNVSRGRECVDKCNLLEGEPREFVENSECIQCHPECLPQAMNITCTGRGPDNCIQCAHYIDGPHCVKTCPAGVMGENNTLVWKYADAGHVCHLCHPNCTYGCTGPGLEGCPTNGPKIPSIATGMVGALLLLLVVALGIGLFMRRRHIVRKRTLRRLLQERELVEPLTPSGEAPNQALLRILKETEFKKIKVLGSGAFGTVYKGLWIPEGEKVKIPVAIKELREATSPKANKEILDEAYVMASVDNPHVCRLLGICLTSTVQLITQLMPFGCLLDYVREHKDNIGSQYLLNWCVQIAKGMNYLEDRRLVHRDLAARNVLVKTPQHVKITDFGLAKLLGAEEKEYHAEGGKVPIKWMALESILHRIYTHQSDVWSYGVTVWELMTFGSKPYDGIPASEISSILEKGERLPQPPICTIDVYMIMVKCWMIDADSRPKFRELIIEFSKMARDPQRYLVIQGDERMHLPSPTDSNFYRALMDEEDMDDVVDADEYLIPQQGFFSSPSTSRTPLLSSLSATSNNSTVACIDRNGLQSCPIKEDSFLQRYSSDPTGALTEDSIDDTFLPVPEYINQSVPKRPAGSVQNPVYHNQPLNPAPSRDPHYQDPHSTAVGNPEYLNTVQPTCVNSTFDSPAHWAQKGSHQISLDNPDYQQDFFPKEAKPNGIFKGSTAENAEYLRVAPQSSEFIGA

For the compound `CCN(CC)CCNCc1ccc(-c2ccc3ncnc(Nc4ccc(OCc5cccc(F)c5)c(Cl)c4)c3c2)o1` [Compound 6a, 4–(3-chloro-4-(3-fluorobenzyloxy)phenylamino)-6–(5-((N,N-diethyl(aminoethyl))aminomethyl)furan-2-yl)quinazoline], the IC50 came out at 2.21 ± 0.25 µM in data set [1] (setting [8]); 9.79 ± 0.07 µM in data set [3] (setting [9]); 6.67 ± 0.95 µM in data set [4] (setting [10]); 5.46 ± 0.19 µM in data set [5] (setting [11]); 0.0156 µM in data set [6]. In addition, the “numbers of late apoptotic cells compared with control groups” value in data set [2] (A549, 10 µM) was “significantly higher”; in data set [2] (A549, 20 µM) it was “significantly higher”. Moreover, the “numbers of necrosis cells compared with control groups” value in data set [2] (A549, 20 µM) is recorded as “significantly higher”. Besides, in data set [2] (A549, 48 h, tested concentrations 20-2.5 µM, versus control), the “early apoptosis of A549 cells” value was “not significantly influenced”. Further, the “percentage of cells in G0/G1 phase” value in data set [7] (A549, 2.5 µM, PI) is 54.15%; in data set [7] (A549, 5 µM, PI), 55.44%; in data set [7] (A549, 10 µM, PI), 51.77%; in data set [7] (A549, 20 µM, PI), 62.45%. Besides, in data set [7] (A549, 20, 10, 5 and 2.5 µM), the “effect on cell cycle of A549 cells” value is recorded as “arrested in the G0/G1 phase”.

`CCN(CC)CCNCc1ccc(-c2ccc3ncnc(Nc4ccc(F)c(Cl)c4)c3c2)o1` [Compound 6b, 4–(3-chloro-4-fluorophenylamino)-6-(5-((N,N-diethyl(aminoethyl))aminomethyl)furan-2-yl)quinazoline]: the melting point lay within 98.3 to 99.8 °C. The IC50 in data set [1] (setting [8]) stood at 3.92 ± 1.1 µM. Also, the concentration for half-maximal inhibition (IC50) in data set [3] (setting [9]) was determined as 17.55 ± 0.03 µM. Besides, in data set [4] (setting [10]), the IC50 is 14.9 ± 2.43 µM. Besides, in data set [5] (setting [11]), the half-maximal inhibitory concentration (IC50) amounted to 18 ± 0.62 µM.

On to `C#Cc1cccc(Nc2ncnc3ccc(-c4ccc(CNCCN(CC)CC)o4)cc23)c1` [Compound 6c, 4–(3-ethynylphenylamino)-6-(5-((N,N-diethyl(aminoethyl))aminomethyl)furan-2-yl)quinazoline], for which the melting point was in the range of 81.4 to 82.3 °C. Besides, the 50% inhibitory concentration (IC50) in data set [1] (setting [8]) stood at 2.59 ± 0.15 µM. Also, in data set [3] (setting [9]), the IC50 worked out at 15.6 ± 1.41 µM. In data set [4] (setting [10]), the IC50 came to 10.8 ± 1.34 µM. In addition, in data set [5] (setting [11]), the IC50 was found to be 12.1 ± 0.37 µM.

As to `C/C=C/c1ccc(Nc2ncnc3ccc(-c4ccc(CNCCN(CC)CC)o4)cc23)cc1` [Compound 6d, 6-(5-((N,N-diethylethyl)aminomethyl)furan-2-yl)-4–(4-(E)-(propen-1-yl)phenylamino)quinazoline], the melting point is 89.9 to 91.3 °C. Further, in data set [1] (setting [8]), the IC50 is 2.09 ± 1.01 µM. In data set [3] (setting [9]), the IC50 is 5.13 ± 0.55 µM. For the same compound, the IC50 in data set [4] (setting [10]) was 4.21 ± 1.16 µM. In data set [5] (setting [11]), the half-inhibitory concentration (IC50) amounted to 4.1 ± 0.66 µM.

For the compound `CS(=O)(=O)CCNCc1ccc(-c2ccc3ncnc(Nc4ccc(OCc5cccc(F)c5)c(Cl)c4)c3c2)o1` [Lapatinib, reference compound], the IC50 in data set [1] (A-431, 72 h) was 4.8 ± 0.71 µM; in data set [3] (NCI-H1975, 72 h), 12.7 ± 0.73 µM; in data set [4] (SW480, 72 h), 12.6 ± 1.35 µM; in data set [5] (A549, 72 h), 14.9 ± 1.21 µM. In data set [2] (A549, 20 µM), the “numbers of late apoptotic cells compared with control groups” value is listed as “significantly higher”. The “numbers of necrosis cells compared with control groups” value in data set [2] (A549, 20 µM) is “significantly higher”. The “percentage of cells in G2/M phase” value in data set [7] (A549, 20 µM, PI) came to 19.41%. Also, the “percentage of cells in S phase” value in data set [7] (A549, 20 µM, PI) came to 19.93%.
